# Like-named read-outs stand apart in the source and are kept apart here.
# Tested on: HIV-IIIb
# Assay: Test A: Antiviral Assay in MT4 Cells
# Type: cell-based
# Settings: MT-4 cells infected with HIV-IIIb, 5 days of incubation, CellTiter-Glo, read-out: EC50
# Description: The antiviral properties of a compound of the invention may be determined using Test A described below.
# Test A: Antiviral Assay in MT4 Cells
# For the antiviral assay utilizing MT-4 cells, 0.4 μL of […] test concentration of 3-fold serially diluted compound in DMSO was added to 40 μL of cell growth medium (RPMI 1640, 10% FBS, 1% penicilline/Streptomycine, 1% L-Glutamine, 1% HEPES) in each well of 384-well assay plates (10 concentrations) in quadruplicate.
# One mL aliquots of 2×10e6 MT-4 cells were pre-infected for 1 and 3 hours respectively, @ 37° C. with 25 uL (MT4) or of either cell growth medium (mock-infected) or a fresh 1:250 dilution of an HIV-IIIb concentrated ABI stock (0.004m.o.i. for MT4 cells). Infected and uninfected cells were diluted in cell growth medium and 35 uL of 2000 (for MT4) cells was added to each well of the assay plates.
# Assay plates were then incubated in a 37° C. incubator. After 5 days of incubation, […] of 2× concentrated CellTiter-Glo™ Reagent (catalog #G7573, Promega Biosciences, Inc., Madison, Wis.) was added to each well of the assay plate. Cell lysis was carried out by incubating at room temperature for 2-3 min and then chemiluminescence was read using the Envision reader (PerkinElmer). […]
# [1] = Human immunodeficiency virus 1, IIIB, MT4, 120 h, Table 1
structure (smiles),measurement,setting,value
"Cc1cc2nc(N3CCCC3)sc2c(-c2ccc3c4c(ccnc24)CCO3)c1[C@H](OC(C)(C)C)C(=O)O (atropisomer, axis not shown) [Compound 50, (S)-2-tert-butoxy-2-((S)-7-(2,3-dihydropyrano[4,3,2-de]quinolin-7-yl)-5-methyl-2-(pyrrolidin-1-yl)benzo[d]thiazol-6-yl)acetic acid]",EC50,Table 1,52.8 nM
"Cc1cc2nc(N3CCCC3)sc2c(-c2ccc3c4c(ccnc24)CCO3)c1[C@H](OC(C)(C)C)C(=O)O (atropisomer, axis not shown) [Compound 51, (S)-2-tert-butoxy-2-((R)-7-(2,3-dihydropyrano[4,3,2-de]quinolin-7-yl)-5-methyl-2-(pyrrolidin-1-yl)benzo[d]thiazol-6-yl)acetic acid]",EC50,Table 1,5250 nM
"Cc1cc2nc(N3CC(F)(F)C3)sc2c(-c2ccc3c4c(ccnc24)CCO3)c1[C@H](OC(C)(C)C)C(=O)O (atropisomer, axis not shown) [Compound 52, (S)-2-tert-butoxy-2-((S)-2-(3,3-difluoroazetidin-1-yl)-7-(2,3-dihydropyrano[4,3,2-de]quinolin-7-yl)-5-methylbenzo[d]thiazol-6-yl)acetic acid]",EC50,Table 1,53.4 nM
"Cc1cc2nc(N3CC(F)(F)C3)sc2c(-c2ccc3c4c(ccnc24)CCO3)c1[C@H](OC(C)(C)C)C(=O)O (atropisomer, axis not shown) [Compound 53, (S)-2-tert-butoxy-2-((R)-2-(3,3-difluoroazetidin-1-yl)-7-(2,3-dihydropyrano[4,3,2-de]quinolin-7-yl)-5-methylbenzo[d]thiazol-6-yl)acetic acid]",EC50,Table 1,37500 nM
"COC1CN(c2nc3cc(C)c([C@H](OC(C)(C)C)C(=O)O)c(-c4ccc5c6c(ccnc46)CCO5)c3s2)C1 (atropisomer, axis not shown) [Compound 54, (S)-2-tert-butoxy-2-((S)-7-(2,3-dihydropyrano[4,3,2-de]quinolin-7-yl)-2-(3-methoxyazetidin-1-yl)-5-methylbenzo[d]thiazol-6-yl)acetic acid]",EC50,Table 1,274 nM
"COC1CN(c2nc3cc(C)c([C@H](OC(C)(C)C)C(=O)O)c(-c4ccc5c6c(ccnc46)CCO5)c3s2)C1 (atropisomer, axis not shown) [Compound 55, (S)-2-tert-butoxy-2-((R)-7-(2,3-dihydropyrano[4,3,2-de]quinolin-7-yl)-2-(3-methoxyazetidin-1-yl)-5-methylbenzo[d]thiazol-6-yl)acetic acid]",EC50,Table 1,53000 nM
"Cc1cc2nc(N3CC(F)C3)sc2c(-c2ccc3c4c(ccnc24)CCO3)c1[C@H](OC(C)(C)C)C(=O)O (atropisomer, axis not shown) [Compound 56, (S)-2-tert-butoxy-2-((S)-7-(2,3-dihydropyrano[4,3,2-de]quinolin-7-yl)-2-(3-fluoroazetidin-1-yl)-5-methylbenzo[d]thiazol-6-yl)acetic acid]",EC50,[1],62.4 nM
"Cc1cc2nc(N3CC(C)C3)sc2c(-c2ccc3c4c(ccnc24)CCO3)c1[C@H](OC(C)(C)C)C(=O)O (atropisomer, axis not shown) [Compound 57, (S)-2-tert-butoxy-2-((S)-7-(2,3-dihydropyrano[4,3,2-de]quinolin-7-yl)-5-methyl-2-(3-methylazetidin-1-yl)benzo[d]thiazol-6-yl)acetic acid]",EC50,[1],147 nM
"Cc1cc2nc(N3CC(S(C)(=O)=O)C3)sc2c(-c2ccc3c4c(ccnc24)CCO3)c1[C@H](OC(C)(C)C)C(=O)O (atropisomer, axis not shown) [Compound 58, (S)-2-tert-butoxy-2-((S)-7-(2,3-dihydropyrano[4,3,2-de]quinolin-7-yl)-5-methyl-2-(3-(methylsulfonyl)azetidin-1-yl)benzo[d]thiazol-6-yl)acetic acid]",EC50,[1],3520 nM
"Cc1c([C@H](OC(C)(C)C)C(=O)O)c(-c2ccc3c4c(ccnc24)CCO3)c2sc(N3CCC3)nc2c1F (atropisomer, axis not shown) [Compound 76, (S)-2-((S)-2-(azetidin-1-yl)-7-(2,3-dihydropyrano[4,3,2-de]quinolin-7-yl)-4-fluoro-5-methylbenzo[d]thiazol-6-yl)-2-tert-butoxyacetic acid]",EC50,[1],26 nM
"CCC(C)(C)O[C@H](C(=O)O)c1c(C)cc2nc(N3CCC3)sc2c1-c1ccc2c3c(ccnc13)CCO2 (atropisomer, axis not shown) [Compound 89, (S)-2-((S)-2-(azetidin-1-yl)-7-(2,3-dihydropyrano[4,3,2-de]quinolin-7-yl)-5-methylbenzo[d]thiazol-6-yl)-2-(tert-pentyloxy)acetic acid]",EC50,[1],36.6 nM
"Cc1cc2nc(-c3cccc(-c4ccc5c(cnn5C)c4)c3)sc2c(-c2ccc3c4c(ccnc24)CCO3)c1[C@H](OC(C)(C)C)C(=O)O (atropisomer, axis not shown) [Compound 164]",EC50,Table 1,483 nM
"Cc1cc2nc(-c3cccc(-c4ccc5c(cnn5C)c4)c3)sc2c(-c2cc(F)c3c(c2C)C(=O)CCO3)c1[C@H](OC(C)(C)C)C(=O)O (atropisomer, axis not shown) [Compound 167]",EC50,[1],39 nM
"Cc1cc2nc(-c3cccc(-c4ccc5c(cnn5C)c4)c3)sc2c(-c2cc(F)c3c(c2C)CCCO3)c1[C@H](OC(C)(C)C)C(=O)O (atropisomer, axis not shown) [Compound 168]",EC50,[1],42 nM
"Cc1cc2nc(-c3ccnc(N4CCN(C(C)C)CC4C)n3)sc2c(-c2ccc(Cl)cc2)c1[C@H](OC(C)(C)C)C(=O)O (stereo in doubt) [Compound 467, (S)-2-tert-butoxy-2-(7-(4-chlorophenyl)-2-(2-((R)-4-isopropyl-2-methylpiperazin-1-yl)pyrimidin-4-yl)-5-methylbenzo[d]thiazol-6-yl)acetic acid]",EC50,"Human immunodeficiency virus 1, IIIB, MT4, 120 h, Table 2",5 nM
"COc1cncc(-c2cc(-c3nc4cc(C)c([C@H](OC(C)(C)C)C(=O)O)c(-c5ccc(Cl)cc5)c4s3)ccn2)c1 [Compound 105, (S)-2-tert-butoxy-2-(7-(4-chlorophenyl)-2-(5′-methoxy-2,3′-bipyridin-4-yl)-5-methylbenzo[d]thiazol-6-yl)acetic acid]",EC50,[1],16 nM
"Cc1cc2nc(-c3cccc(-c4cncnc4)c3)sc2c(-c2ccc(Cl)cc2)c1[C@H](OC(C)(C)C)C(=O)O [Compound 106, (S)-2-tert-butoxy-2-(7-(4-chlorophenyl)-5-methyl-2-(3-(pyrimidin-5-yl)phenyl)benzo[d]thiazol-6-yl)acetic acid]",EC50,[1],103 nM
"Cc1cc2nc(-c3ccnc(-c4ccc5cnn(C)c5c4)c3)sc2c(-c2ccc(Cl)cc2)c1[C@H](OC(C)(C)C)C(=O)O [Compound 108, (S)-2-tert-butoxy-2-(7-(4-chlorophenyl)-5-methyl-2-(2-(1-methyl-1H-indazol-6-yl)pyridin-4-yl)benzo[d]thiazol-6-yl)acetic acid]",EC50,[1],33 nM
"Cc1cc2nc(-c3ccnc(-c4ccc5c(cnn5C)c4)n3)sc2c(-c2ccc(Cl)cc2)c1[C@H](OC(C)(C)C)C(=O)O [Compound 110, (S)-2-tert-butoxy-2-(7-(4-chlorophenyl)-5-methyl-2-(2-(1-methyl-1H-indazol-5-yl)pyrimidin-4-yl)benzo[d]thiazol-6-yl)acetic acid]",EC50,[1],14 nM
"Cc1cc2nc(-c3cnc4cnn(C)c4c3)sc2c(-c2ccc(Cl)cc2)c1[C@H](OC(C)(C)C)C(=O)O [Compound 111, (S)-2-tert-butoxy-2-(7-(4-chlorophenyl)-5-methyl-2-(1-methyl-1H-pyrazolo[4,3-b]pyridin-6-yl)benzo[d]thiazol-6-yl)acetic acid]",EC50,[1],8 nM
Cc1cc2nc(-c3cnc4[nH]cc(C)c4c3)sc2c(-c2ccc(Cl)cc2)c1[C@H](OC(C)(C)C)C(=O)O [Compound 112],EC50,[1],28 nM
"Cc1cc2nc(-c3ccc4c(cnn4C)c3)sc2c(-c2ccc(Cl)cc2)c1[C@H](OC(C)(C)C)C(=O)O [Compound 113b, (S)-2-tert-butoxy-2-(7-(4-chlorophenyl)-5-methyl-2-(1-methyl-1H-indazol-5-yl)benzo[d]thiazol-6-yl)acetic acid]",EC50,[1],18 nM
"Cc1cc2nc(-c3cncc(-c4ccc5c(cnn5C)c4)c3)sc2c(-c2ccc(Cl)cc2)c1[C@H](OC(C)(C)C)C(=O)O [Compound 114, (S)-2-tert-butoxy-2-(7-(4-chlorophenyl)-5-methyl-2-(5-(1-methyl-1H-indazol-5-yl)pyridin-3-yl)benzo[d]thiazol-6-yl)acetic acid]",EC50,[1],13 nM
"Cc1cc2nc(-c3ccnc(-c4ccc5[nH]ncc5c4)c3)sc2c(-c2ccc(Cl)cc2)c1[C@H](OC(C)(C)C)C(=O)O [Compound 115, (S)-2-(2-(2-(1H-indazol-5-yl)pyridin-4-yl)-7-(4-chlorophenyl)-5-methylbenzo[d]thiazol-6-yl)-2-tert-butoxyacetic acid]",EC50,[1],13 nM
"Cc1cc2nc(-c3cnc4c(cnn4C)c3)sc2c(-c2ccc(Cl)cc2)c1[C@H](OC(C)(C)C)C(=O)O [Compound 116, (S)-2-tert-butoxy-2-(7-(4-chlorophenyl)-5-methyl-2-(1-methyl-1H-pyrazolo[3,4-b]pyridin-5-yl)benzo[d]thiazol-6-yl)acetic acid]",EC50,[1],19 nM
